Test results reported in patent US20240189263A1, “DERIVATIZED C60 MOLECULES AND METHODS AND MATERIALS FOR USING DERIVATIZED C60 MOLECULES TO REDUCE RADIATION INJURY” (Mayo Foundation for Medical Education and Research, priority 2021, published 2024).

Experiments:
[1] = tested on: HUVEC cells; assay: MTS cytotoxicity assay, HUVEC; format: cell-based; conditions: 1-1000 μM, 24, 48 or 72 hours
Description: Cytotoxicity of C60-ser was determined by an MTS (3-(4,5-dimethylthiazol-2-yl)-5-(3-carboxymethoxyphenyl)-2-(4-sulfophenyl)-2H-tetrazolim) colorimetric assay on four different cell lines, each representing a different cell type. Specifically, HepG2 (liver epithelium), HUVEC (endothelial cells), N2A (neuroblastoma cells representative of normal neurons), and NIH3T3 (fibroblasts) were analyzed. The cells were seed in a 96-well tissue culture polystyrene plate at different seeding concentrations based on the cell's doubling time. HUVEC cells were seeded at 10,000 cells/well (24 hour experiments), 8,000 cells/well (48 hour experiments), and 5,000 cells/well (72 hour experiments), and incubated for 24 hours in a humidified atmosphere with 5% C02 at 37° C. […] After incubation with MTS, the optical density (OD) of the resulting formazan solution was read at 490 nm using a microplate reader (Biotek Cytation 5 cell Imaging Multi-Mode reader, Winooski, VT). The cell viability was obtained by normalizing the absorbance of the sample with that of the control wells containing untreated cells. The cell viability was expressed as a percentage, assigning the viability of non-treated cells as 100%. […]

[2] = tested on: Panc02 tumor on the thigh of C57B16 mice; assay: Syngeneic mouse model of pancreatic cancer, tumor volume under radiation; format: in vivo; conditions: 700 mg/kg per os once 12 hours before first radiation, with capecitabine 350 mg/kg 5 days, 2 Gy x 5 days, 20 days
Description: A syngeneic mouse model of pancreatic cancer (Panc02 growing on the thigh of C57B16 mice) was used to evaluate the effects of C60-ser on in vivo tumors. Mice were treated with 350 mg/kg capecitabine via per os gavage for 5 days 1 hour before radiation (RT+Cape), or capecitabine treatment with a single dose of 700 mg/kg C60-ser via per os gavage once 12 hours before the first dose of radiation (RT+Cape+c60 Ser). Mice were exposed to 2 Gy of radiation (RT) once per day for 5 days. A control group (Cont) without treatment also was exposure to the radiation treatment. Normalized tumor volumes were monitored for 20 days.

[3] = Dynamic light scattering analysis of C60-ser aggregates; format: physicochemical; conditions: for Predominant aggregate sizes: in PBS
Description: Dynamic light scattering (DLS) was used to observe the aggregation process of C60-ser. Dynamic light scattering heatmaps were created by combining multiple normalized particle number weighted distribution (PNWD) plots. The PNWD plots compared the log of the relative scattering intensity versus particle size, at angles of 173°. The refractive index was assumed to be n=1.34, the absorption constant to be k=0.001, and the solution viscosity to be that of water, corrected for temperature (η=0.888 mPa s). Plots were collected with a 0.2° C. interval. Each temperature interval was held constant for more than 45 minutes before performing the next measurement, to ensure the presence of an aggregation equilibrium.

[4] = tested on: NIH3T3 cells; assay: Classic clonogenics survival assay of irradiated cells, NIH3T3; format: cell-based
Description: A classic clonogenics assay was performed to further test the ability of C60-ser to protect against radiation damage. After irradiation, a fraction of the cells will undergo radiation-induced death, whereas other cells remain metabolically active and are able to undergo a few cycles of mitosis before meeting their endpoint. Since many cells remain metabolically activity, classic toxicity measurements such as an MTT measurement are not able to catch the full effects of radiation damage. In contrast, a classic clonogenics assay, which plates a known number of cells and tracks development of colonies, is able to track the number of cells that maintain their clonogenicity. With increasing radiation doses, the fraction of cells that maintain clonogenicity decrease. Therefore, a successful radioprotectant is able to increase the number of surviving colonies compared to the control at the same radiation doses.
N2A, NIH3T3, and HepG2 cells were plated in 35 mm dishes and treated with 100 μM C60-ser for 2 hours prior to washing with PBS and irradiation at 0, 2, 4, and 6 Gy with a 230 MeV proton beam. Following radiation, a known number of cells were re-plated in six well plates and allowed to grow in culture for 8-14 days to allow for colony formation. To account for cell death with higher radiation doses, a larger number of cells were plated with increasing doses received. […]

In the case of `O=C(NC(CO)CO)C1(C(=O)NC(CO)CO)C23c4c5c6c7c8c4-c4c2c2c9c%10c4C4%11c%12c-%10c%10c%13c%14c%12-c%12c(c-7c7c%15c%12C%14%12C(C(=O)NC(CO)CO)(C(=O)NC(CO)CO)C%12%14c%12c%16c%17c%18c(c%12-%15)C7%12C(C(=O)NC(CO)CO)(C(=O)NC(CO)CO)C6%12c6c-5c5c7c(c6-%18)C%176C(C(=O)NC(CO)CO)(C(=O)NC(CO)CO)C6%12c6c-7c(c-2c2c6-c6c%12c-%16c%14c-%13c6C%106C(C(=O)NC(CO)CO)(C(=O)NC(CO)CO)C926)C513)C84C%11(C(=O)NC(CO)CO)C(=O)NC(CO)CO` (stereo not shown) [C60-ser, C60-serinol], the percent viability [1] is reported as “did not result in a significant decrease in viability”, the “normalized tumor volume vs capecitabine alone” value [2] is reported as “not significantly different in normalized tumor volume” and the Predominant aggregate sizes ([3]; 0.1 mg/mL, 37 ° C.) is reported as 260 ± 38 nm. The Predominant aggregate sizes ([3]; 10 mg/mL, 4 ° C.) was 290 ± 73 nm, the Predominant aggregate sizes ([3]; 10 mg/mL, 37 ° C.) was 233 ± 56 nm and the size of aggregates ([3]; dynamic equilibrium in water) was 100-2000 nm. The “size of conjugate monomers” value ([3]; dynamic equilibrium in water) was roughly 3 nm, the “diameters of individual molecules” value ([3]; initially, when dissolved in water) was 3-4 nm and the “fraction of surviving cells” value ([4]; NIH3T3, 100 μM 2 hours before irradiation) was “increased the fraction of surviving cells”. The “dose enhancement factor (DEF) at 20% surviving fraction” value ([4]; NIH3T3, 100 μM 2 hours, 0-6 Gy 230 MeV proton) was 0.85±0.03.
